Test results reported in publication PMC3463587, “A Series of Beta-Carboline Derivatives Inhibit the Kinase Activity of PLKs” (PLoS ONE, 2012).

Columns and labels:
CDK2/cyclinE(h) = CDK2/cyclinE(h) (Homo sapiens, UniProt P24941); test: In vitro kinase assay CDK2/cyclinE (33P-ATP); assay type: biochemical
Description: (§1) The inhibition of PLK1 kinase activity was assessed using the Cyclex PLK1 Assay/Inhibitor Screening Kit (MBL International Corporation, Japan). The kit includes anti-phospho-threonine polyclonal antibody (PPT-07) and peroxidase coupled anti-rabbit IgG antibody as a reporter in a 96-well ELSIA format. Compounds were used at the concentrations from 10^− ^3 to 10^2 µg/ml and the absorbance was determined at 450 nm. A similar protocol was used to determine the kinase inhibition for PLK2, PLK3, Aurora A and Aurora B. The kinase activity of CDK1/cyclinB and CDK2/cyclinE was analyzed in the presence of serially diluted inhibitors. For each reaction, 20 ng of recombinant kinase was used and […] casein from bovine milk (Sigma) was added as the kinase substrate. The kinase reaction buffer contains 8 mM MOPS pH7.0, 0.2 mM EDTA, 0.1 mg/ml histone H1, 10 mM and MgAcetace and [γ^− ^33P-ATP] (500 cpm/pmol). The reaction was initiated by adding the MgATP mix. After incubation for 40 minutes at room temperature, the reaction was stopped by the addition of 3% phosphoric acid solution. We spotted 10 µl of the reaction mixture onto a P30 filtermat and washed three times for 5 min with 75 mM phosphoric acid and once with methanol prior to drying and scintillation counting.

CDK1/cyclinB(h) = CDK1/cyclinB(h) (Homo sapiens, UniProt P06493); test: In vitro kinase assay CDK1/cyclinB (33P-ATP); assay type: biochemical
CDK1/cyclinB(h), sequence (P06493 whole entry): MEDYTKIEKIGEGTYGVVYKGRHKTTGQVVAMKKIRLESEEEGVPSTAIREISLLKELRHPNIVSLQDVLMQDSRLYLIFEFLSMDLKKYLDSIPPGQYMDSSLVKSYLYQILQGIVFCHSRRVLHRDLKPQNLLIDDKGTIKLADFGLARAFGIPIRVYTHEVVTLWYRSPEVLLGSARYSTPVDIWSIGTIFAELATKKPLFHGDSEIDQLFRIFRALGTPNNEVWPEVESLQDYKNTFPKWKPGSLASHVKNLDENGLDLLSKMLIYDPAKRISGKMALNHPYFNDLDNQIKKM
CDK1/cyclinB(h), sequence (P14635 whole entry partner): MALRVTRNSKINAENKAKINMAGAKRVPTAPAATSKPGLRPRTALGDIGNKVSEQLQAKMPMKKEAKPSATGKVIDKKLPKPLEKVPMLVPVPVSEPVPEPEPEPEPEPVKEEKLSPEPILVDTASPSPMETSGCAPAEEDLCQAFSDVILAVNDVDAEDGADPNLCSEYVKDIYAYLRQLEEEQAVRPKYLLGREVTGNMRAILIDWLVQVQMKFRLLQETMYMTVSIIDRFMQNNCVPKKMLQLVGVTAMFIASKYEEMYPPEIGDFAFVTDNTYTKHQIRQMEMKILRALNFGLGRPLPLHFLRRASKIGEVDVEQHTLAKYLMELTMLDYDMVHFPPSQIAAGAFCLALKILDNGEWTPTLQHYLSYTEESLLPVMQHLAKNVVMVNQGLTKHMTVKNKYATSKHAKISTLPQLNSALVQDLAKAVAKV
Description: as §1

HeLa cells [1] = test: FACS cell cycle analysis (PI), HeLa; assay type: cell-based, human
Description: It is well documented that PLK1 is involved in multiple steps in mitosis, such as centrosome maturation and establishment of bipolar spindle. […] Therefore, the down-regulation of PLK1 would change the distribution of cells in different cell cycle stages. To test this possibility, fluorescence-activated cell sorter (FACS) analysis was used to analyze the DNA content of HeLa cells treated with the identified PLK1 inhibitors, DH281, DH285, and DH287. HeLa cells were first incubated in the absence and presence of these compounds at different concentrations (0, 0.12, 0.48 and 1.92 µM) for 48 hr. […] Treatment with a lower concentration of the compounds (0.12 and 0.48 µM) also led to an obvious increase of the cell population in G2/M phase (Figure 4A, Table 3). Moreover, the proportion of HeLa cells in G2/M phase increased over time after incubation in the presence of 0.8 µM of DH281, DH285 and DH287 (Figure 4B, Table 4). […] We also determined the cell cycle distribution of the non-cancer MRC5 cells after treatment with DH281 at different concentrations. […] It is also possible that inhibition of the kinase activity of the whole PLK family by beta-carboline compounds results in the defect in cell cycle progression.
[…] The floated and attached cells were treated by trypsinization and washed with cold PBS. The cells were then fixed with 70% (v/v) ethanol at 4°C overnight. The fixed cells were washed twice with PBS and incubated with 50 µg/mL RNase A (Sigma, USA) and 50 µg/mL propidium iodide (PI) (Sigma, USA) at 37°C for 30 min.

HeLa cells [2] = test: FITC-Annexin V/PI apoptosis assay, HeLa; assay type: cell-based, human
Description: Staining with Annexin V–FITC and propidium iodide (PI) is commonly used to distinguish apoptotic, necrotic, and dead cells. PI is impermeant to live cells and apoptotic cells at early stages, but it stains dead cells and apoptotic cells at late stages through its binding to the nucleic acids. Apoptotic cells in early or late stages are stained positively for Annexin V-FITC that binds to phosphotidylserine. We used FACS analysis to determine the proportion of HeLa cells positive for Annexin V-FITC (FITC), PI, or both. The HeLa cells with PI^−/PI^+ FITC^+ were counted as apoptotic cells (Figure 5). […] However, 16.19% (3.96+12.23) of HeLa cells became FITC positive after treatment with 1.05 µM DH281 for 48 hr. The treatment with 5.25 µM DH281 induced apoptosis among 89.6% (89.51+0.09) of HeLa cells (Table 5). […] In contrast to HeLa cells, the induction of apoptosis by DH281 was much less efficient in non-cancer MRC5 cells (Table 5). Therefore, we conclude that the treatment with compounds DH281, DH285 and DH287 induces substantial apoptosis in HeLa cells, but non-cancer MRC5 cells are much less sensitive to the treatment. The distinct apoptotic responses of HeLa and MRC5 cells to beta-carboline compounds could explain the selectivity of PLK1 inhibitors toward cancer cells.
HeLa cells were either treated with 0, 0.21, 1.05 and 5.25 µM of DH281, DH285 and DH287 for 48 hr, or treated with 1.21 µM compounds for 24, 48 and 72 hr, while MRC5 cells were exposed to compounds at 0, 0.21, 1.05, and 5.25 µM for 48 hr. The cultured cells were harvested, washed three times with PBS, and resuspended in 500 µl binding buffer (10 mM Hepes/sodium hydroxide (pH7.4), 140 mM sodium chloride, and 2.5 mM CaCl2). Then 5 µl FITC-labeled Annexin V (Zhongshan JinQiao Biotechnology Ltd., Beijing) was added and the cells were incubated in the dark for 10 min. We added 5 µl of propidium iodide (PI) (10 µg/ml in binding buffer) to each sample before flow cytometry analysis.

Cc1c2c(cc[n+]1Cc1ccccc1)c1ccc(OCc3ccccc3)cc1n2Cc1ccccc1 [DH287]
IC50 (CDK2/cyclinE(h)): > 100 µM | IC50 (CDK1/cyclinB(h)): 39.4 µM | cells in G1 (HeLa cells [1]; 0.12 µM, 48 hr): 77.3% | cells in G2 (G2/M) (HeLa cells [1]; 0.12 µM, 48 hr): 6.86% | cells in S (HeLa cells [1]; 0.12 µM, 48 hr): 15.9% | cells in G1 (HeLa cells [1]; 0.48 µM, 48 hr): 64.8% | cells in G2 (G2/M) (HeLa cells [1]; 0.48 µM, 48 hr): 14.2% | cells in S (HeLa cells [1]; 0.48 µM, 48 hr): 21.0% | cells in G1 (HeLa cells [1]; 0.8 µM, 24 hr): 64.5% | cells in G2 (G2/M) (HeLa cells [1]; 0.8 µM, 24 hr): 10.2% | cells in S (HeLa cells [1]; 0.8 µM, 24 hr): 25.3% | cells in G1 (HeLa cells [1]; 0.8 µM, 36 hr): 54.6% | cells in G2 (G2/M) (HeLa cells [1]; 0.8 µM, 36 hr): 15.9% | cells in S (HeLa cells [1]; 0.8 µM, 36 hr): 29.5% | cells in G1 (HeLa cells [1]; 0.8 µM, 48 hr): 49.3% | cells in G2 (G2/M) (HeLa cells [1]; 0.8 µM, 48 hr): 13.0% | cells in S (HeLa cells [1]; 0.8 µM, 48 hr): 37.8% | cells in G1 (HeLa cells [1]; 0.8 µM, 60 hr): 30.6% | cells in G2 (G2/M) (HeLa cells [1]; 0.8 µM, 60 hr): 16.6% | cells in S (HeLa cells [1]; 0.8 µM, 60 hr): 52.8% | cells in G1 (HeLa cells [1]; 1.92 µM, 48 hr): 51.9% | cells in G2 (G2/M) (HeLa cells [1]; 1.92 µM, 48 hr): 21.0% | PI+ FITC+ (late apoptotic cells) (HeLa cells [2]; 0.21 µM, 48 hr): 2.16% | PI+ FITC− (dead cells) (HeLa cells [2]; 0.21 µM, 48 hr): 3.48% | PI− FITC+ (early apoptotic cells) (HeLa cells [2]; 0.21 µM, 48 hr): 1.12% | PI− FITC− (live cells) (HeLa cells [2]; 0.21 µM, 48 hr): 93.25% | PI+ FITC+ (late apoptotic cells) (HeLa cells [2]; 1.05 µM, 48 hr): 5.20% | PI+ FITC− (dead cells) (HeLa cells [2]; 1.05 µM, 48 hr): 9.81% | PI− FITC+ (early apoptotic cells) (HeLa cells [2]; 1.05 µM, 48 hr): 7.20% | PI− FITC− (live cells) (HeLa cells [2]; 1.05 µM, 48 hr): 77.8% | PI+ FITC+ (late apoptotic cells) (HeLa cells [2]; 1.21 µM, 24 hr): 10.88% | PI+ FITC− (dead cells) (HeLa cells [2]; 1.21 µM, 24 hr): 3.56% | PI− FITC+ (early apoptotic cells) (HeLa cells [2]; 1.21 µM, 24 hr): 10.39% | PI− FITC− (live cells) (HeLa cells [2]; 1.21 µM, 24 hr): 75.17% | PI+ FITC+ (late apoptotic cells) (HeLa cells [2]; 1.21 µM, 48 hr): 8.31% | PI+ FITC− (dead cells) (HeLa cells [2]; 1.21 µM, 48 hr): 7.05% | PI− FITC+ (early apoptotic cells) (HeLa cells [2]; 1.21 µM, 48 hr): 25.70% | PI− FITC− (live cells) (HeLa cells [2]; 1.21 µM, 48 hr): 58.94% | PI+ FITC+ (late apoptotic cells) (HeLa cells [2]; 1.21 µM, 72 hr): 1.19% | PI− FITC+ (early apoptotic cells) (HeLa cells [2]; 1.21 µM, 72 hr): 55.98% | PI− FITC− (live cells) (HeLa cells [2]; 1.21 µM, 72 hr): 38.27% | PI+ FITC+ (late apoptotic cells) (HeLa cells [2]; 5.25 µM, 48 hr): 5.58% | PI+ FITC− (dead cells) (HeLa cells [2]; 5.25 µM, 48 hr): 8.71% | PI− FITC+ (early apoptotic cells) (HeLa cells [2]; 5.25 µM, 48 hr): 65.36% | PI− FITC− (live cells) (HeLa cells [2]; 5.25 µM, 48 hr): 20.35%

Cc1c2c(cc[n+]1Cc1ccccc1)c1ccc(OCc3ccc(F)cc3)cc1n2CCCc1ccccc1 [DH281]
IC50 (CDK2/cyclinE(h)): > 100 µM | IC50 (CDK1/cyclinB(h)): 42.1 µM | cells in G1 (HeLa cells [1]; 0.12 µM, 48 hr): 70.5% | cells in G2 (G2/M) (HeLa cells [1]; 0.12 µM, 48 hr): 10.1% | cells in S (HeLa cells [1]; 0.12 µM, 48 hr): 19.4% | cells in G1 (HeLa cells [1]; 0.48 µM, 48 hr): 55.3% | cells in G2 (G2/M) (HeLa cells [1]; 0.48 µM, 48 hr): 14.4% | cells in S (HeLa cells [1]; 0.48 µM, 48 hr): 30.3% | cells in G1 (HeLa cells [1]; 0.8 µM, 24 hr): 64.1% | cells in G2 (G2/M) (HeLa cells [1]; 0.8 µM, 24 hr): 10.2% | cells in S (HeLa cells [1]; 0.8 µM, 24 hr): 25.7% | cells in G1 (HeLa cells [1]; 0.8 µM, 36 hr): 53.4% | cells in G2 (G2/M) (HeLa cells [1]; 0.8 µM, 36 hr): 18.9% | cells in S (HeLa cells [1]; 0.8 µM, 36 hr): 27.7% | cells in G1 (HeLa cells [1]; 0.8 µM, 48 hr): 42.4% | cells in G2 (G2/M) (HeLa cells [1]; 0.8 µM, 48 hr): 16.6% | cells in S (HeLa cells [1]; 0.8 µM, 48 hr): 41.1% | cells in G1 (HeLa cells [1]; 0.8 µM, 60 hr): 33.9% | cells in G2 (G2/M) (HeLa cells [1]; 0.8 µM, 60 hr): 14.6% | cells in S (HeLa cells [1]; 0.8 µM, 60 hr): 51.6% | cells in G1 (HeLa cells [1]; 1.92 µM, 48 hr): 38.4% | cells in G2 (G2/M) (HeLa cells [1]; 1.92 µM, 48 hr): 26.7% | cells in S (HeLa cells [1]; 1.92 µM, 48 hr): 34.9% | PI+ FITC+ (late apoptotic cells) (HeLa cells [2]; 0.21 µM, 48 hr): 3.22% | PI+ FITC− (dead cells) (HeLa cells [2]; 0.21 µM, 48 hr): 3.24% | PI− FITC+ (early apoptotic cells) (HeLa cells [2]; 0.21 µM, 48 hr): 0.97% | PI− FITC− (live cells) (HeLa cells [2]; 0.21 µM, 48 hr): 92.57% | FITC positive (apoptotic) cells, early + late (HeLa cells [2]; 1.05 µM, 48 hr): 16.19% | PI+ FITC+ (late apoptotic cells) (HeLa cells [2]; 1.05 µM, 48 hr): 3.96% | PI+ FITC− (dead cells) (HeLa cells [2]; 1.05 µM, 48 hr): 10.22% | PI− FITC+ (early apoptotic cells) (HeLa cells [2]; 1.05 µM, 48 hr): 12.23% | PI− FITC− (live cells) (HeLa cells [2]; 1.05 µM, 48 hr): 73.59% | PI+ FITC+ (late apoptotic cells) (HeLa cells [2]; 1.21 µM, 24 hr): 10.65% | PI+ FITC− (dead cells) (HeLa cells [2]; 1.21 µM, 24 hr): 2.52% | PI− FITC+ (early apoptotic cells) (HeLa cells [2]; 1.21 µM, 24 hr): 1.42% | PI− FITC− (live cells) (HeLa cells [2]; 1.21 µM, 24 hr): 85.41% | PI+ FITC+ (late apoptotic cells) (HeLa cells [2]; 1.21 µM, 48 hr): 8.91% | PI+ FITC− (dead cells) (HeLa cells [2]; 1.21 µM, 48 hr): 3.31% | PI− FITC+ (early apoptotic cells) (HeLa cells [2]; 1.21 µM, 48 hr): 16.20% | PI− FITC− (live cells) (HeLa cells [2]; 1.21 µM, 48 hr): 71.58% | PI+ FITC+ (late apoptotic cells) (HeLa cells [2]; 1.21 µM, 72 hr): 5.97% | PI+ FITC− (dead cells) (HeLa cells [2]; 1.21 µM, 72 hr): 1.41% | PI− FITC+ (early apoptotic cells) (HeLa cells [2]; 1.21 µM, 72 hr): 39.54% | PI− FITC− (live cells) (HeLa cells [2]; 1.21 µM, 72 hr): 53.08% | FITC positive (apoptotic) cells, early + late (HeLa cells [2]; 5.25 µM, 48 hr): 89.6% | PI+ FITC+ (late apoptotic cells) (HeLa cells [2]; 5.25 µM, 48 hr): 0.09% | PI+ FITC− (dead cells) (HeLa cells [2]; 5.25 µM, 48 hr): 0.37% | PI− FITC+ (early apoptotic cells) (HeLa cells [2]; 5.25 µM, 48 hr): 89.51% | PI− FITC− (live cells) (HeLa cells [2]; 5.25 µM, 48 hr): 10.03%
